From US11000535B2, “Anticancer composition and use thereof” (KAOHSIUNG MEDICAL UNIVERSITY, priority 2015, dated 2021)
≈ marks a conversion by molar mass, not a printed value.

Assays:
Assay type in all cases: cell-based, human
GNMT promoter = assay: Dual luciferase GNMT promoter reporter assay in c-Myc knocked-out Huh7 cells; settings: 0.1 mg/mL
Protocol: Huh7 cells were co-transfected with a GNMT promoter reporter plasmid, a thymidine kinase (TK) renilla luciferase plasmid, a shMyc plsmid or a shLacZ plasmid for 72 hours.
Evaluating whether the activity of GNMT promoter is damaged or not by knocking out the c-Myc gene and then administering with PGG, in order to confirm that the inhibition of the expression of c-Myc resulting in induced GNMT promoter due to PGG.
Please refer to FIG. 39, which illustrates overexpressions of PGG and c-Myc have influences on GNMT reporter, wherein the numeral 1 denotes the solvent, the numeral 2 denotes PGG, the numeral 3 denotes shLacZ, and the numeral 4 denotes shMyc.

Mahlavu cells = assay: alamarBlue cell viability, Mahlavu
From the text: (§1) Next, we analyzed the effect of PGG on cell proliferation in different liver cancer cell lines, including Huh7, Hep3B (ATCC-No 8064), HepG2 (ATCC HB-8065), SK-HEP-1 (ATCC HTB-52), Mahlavu and HepG2 (ATCC HB-8065).
(§2) Please refer to FIG. 18, which illustrates the effect of PGG on cell proliferation in different liver cancer cell lines, wherein the numeral 1 denotes Huh7 cells, the numeral 2 denotes Hep3B cells, the numeral 3 denotes SK-HEP-1 cells, the numeral 4 denotes Mahlavu cells, and the numeral 5 denotes HepG2 cells. And cell viability was determined by the alamarBlue® viability assay. IC50 values of PGG in each cell line are shown as follows: Huh7 cells 0.03 mg/mL, Hep3B cells 0.07 mg/mL, SK-HEP-1 cells, Mahlavu cells and HepG2 0.10 mg/mL dose-dependent.
(§3) Human liver cancer cell lines Huh7, Hep G2, Hep 3B, SK-HEP-1, Mahlavu and embryonic kidney cell line HEK-293T all were cultured in Dulbecco's Modified Eagle's Medium (DMEM) (Gibco BRL, Grand Island, N.Y., USA) with 10% heat-inactivated fetal bovine serum (HyClone, Logan, Utah, USA), penicillin (100 U/mL), streptomycin ([…]), nonessential amino acids (0.1 mM/L) and L-glutamine (2 mM/L) in a humidified incubator with 5% CO2.

GNMT = GNMT mRNA and protein expression in Huh7 cells (qPCR, immunoblot)
Protocol: RNA was prepared by using Tri Reagent (Sigma-Aldrich, St Louis, Mo., USA) and was reverse transcribed into cDNA using a Super Script II Reverse Transcriptase Kit (Invitrogen Inc., Carlsbad, Calif., USA).
PCR was performed on an ABI StepOne Plus System (Applied Biosystems, Foster City, Calif., USA) using the LightCycler® First Start DNA Master SYBR Green I reagent (Roche Diagnostics, Basel, Switzerland). The mRNA level was normalized using the TATA-box binding protein (TBP) mRNA level as the standard.
The following primers were used: GNMT forward, 5′-ACTGGATGACT CTGGACAA-3′ (SEQ ID NO. 3) and reverse, 5′-ACTGAGGATGTGGTCGT-3′(SEQ ID NO. 4); TBP forward, 5′-[…]-3′ (SEQ ID NO. 5) and reverse, 5′-[…]-3′(SEQ ID NO. 6); c-Myc forward, […](SEQ ID NO. 7) and reverse, […](SEQ ID NO. 8).
(§4) Cells or xenograft tumors were harvested with RIPA lysis buffer (50 mM Tris (pH 7.5), 150 mM NaCl, 1% Triton X-100, 0.1% sodium dodecyl sulfate (SDS), 0.5% sodium deoxycholate, supplemented with protease and phosphatase inhibitors (1 mM Phenylmethanesulfonyl Fluoride (PMSF), […], […] Tosyllysine Chloromethyl Ketone (TLCK), […] Tosyl phenylalanyl chloromethyl ketone (TPCK), […] aprotinin, 1 mM sodium fluoride (NaF), 5 mM sodium pyrophosphate (NaPPi) and 10 mM sodium orthovanadate (Na3VO4).
(§5) Protein lysates were quantified and separated on SDS-PAGE gel, and immunoblotting was carried out.
The following antibodies were used: anti-GNMT (14-1, YMAC Bio Tech, Taiwan), anti-caspase-3 (9H19L2, Thermo Scientific) and anti-actin (AC-15, Sigma-Aldrich).

c-Myc protein [1] = assay: c-Myc protein expression by immunoblotting, HL60; settings: HL60 cells, 0.1 mg/mL
Protocol: Human prostate cancer cell line PC-3 and human promyelocytic leukemia cell line HL-60 were cultured in Gibco BRL company RPMI (Roswell Park Memorial Institute) 1640's medium.
as §4, §5

Huh7 cells = assay: Colony formation assay; settings: 7 days
Protocol: For the colony assay, Huh7 cells were seeded. […] Numbers of surviving colonies were analyzed.

Hep3B cells = assay: alamarBlue cell viability, Hep3B
From the text: as §1, §2, §3

c-Myc protein [2] = assay: c-Myc protein expression by immunoblotting, HepG2; settings: HepG2 cells
Protocol: (§6) Please refer to FIG. 32A, FIG. 32B, FIG. 33A and FIG. 33B.
as §4, §5

c-Myc protein [3] = assay: c-Myc protein expression by immunoblotting, Huh7; settings: Huh7 cells
Protocol: as §6, §4, §5

IC50 (Hep3B cells): 70 µg/mL (≈ 74.4 µM)
SMILES: O=C(OC[C@H]1O[C@@H](OC(=O)c2cc(O)c(O)c(O)c2)[C@H](OC(=O)c2cc(O)c(O)c(O)c2)[C@@H](OC(=O)c2cc(O)c(O)c(O)c2)[C@@H]1OC(=O)c1cc(O)c(O)c(O)c1)c1cc(O)c(O)c(O)c1 [PGG, 1,2,3,4,6-penta-O-galloyl-β-D-glucopyranoside]
GNMT promoter induction in cells knocked out c-Myc (shMyc vs shLacZ) (GNMT promoter): drop | IC50 (Mahlavu cells): 100 µg/mL (≈ 106 µM) | GNMT mRNA expression (GNMT; 0.1 mg/ml, Huh7 cells): induced GNMT mRNA expression | GNMT protein expression (GNMT; 0.1 mg/ml, Huh7 cells): induced GNMT protein expression | time of optimal induced effect on GNMT (GNMT; after administration, qPCR and immunoblot): 48 h | c-Myc protein expression (c-Myc protein [1]): inhibits c-Myc protein expression | inhibition of colony formation (Huh7 cells; 0.05 mg/ml or higher): 95% | formation of Huh7 cell populations (colonies), dose dependence (Huh7 cells): dose-dependent manner | expression of c-Myc protein, dose dependence (c-Myc protein [2]): suppresses the expression of c-Myc protein in HepG2 cells in a dose-dependent manner | expression of c-Myc protein, time dependence (c-Myc protein [2]): suppresses the expression of c-Myc protein in HepG2 cells in a time-dependent manner | expression of c-Myc protein, dose dependence (c-Myc protein [3]): suppresses the expression of c-Myc protein in Huh7 cells in a dose-dependent manner | expression of c-Myc protein, time dependence (c-Myc protein [3]): suppresses the expression of c-Myc protein in Huh7 cells in a time-dependent manner
